Test results as given in patent US4157391A, “Cholesterol derivative-based medicaments acting on bio-protective mechanisms” (The Green Cross Corporation, priority 1977, dated 1979).
≈ marks a conversion by molar mass, not a printed value.

Columns and labels:
rats = assay: Acute toxicity test in rats; assay type: in vivo; details: intra-abdominal, 500, 1,000, 1,500 and 2,000 mg/kg, 5-day observation
Method: An acute toxicity test of 7-hydroxycholesterol and 7-ketocholesterol was conducted on one group of rats (5 rats) with average body weight of about 200 gr. Each compound was suspended in a physiological solution of sodium chloride and made into a uniform suspension by a supersonic treatment, and then such suspension was administered intro-abdominally to each rat at the doses of 500 mg/kg, 1,000 mg/kg, 1,500 mg/kg and 2,000 mg/kg, respectively.

[1] = test system: edemata grown on the mice legs (carrageenin); assay: Antiphlogistic action: carrageenin edema of hind legs in mice; assay type: in vivo
Method: 20 Mice were divided into four groups of five and the mice of two test groups were administered intra-abdominally with 7-hydroxycholesterol and 7-ketocholesterol, respectively, with the dose of 200 mg/kg (physiologically isotonic 2.0 weight % aqueous solution), and 1 hour later, 0.05 ml of 1% carrageenin was administered as a phlogogenic agent subcutaneously to the hind legs of these mice.
The sizes of the edemata grown on the mice legs with time after carrageenin administration were measured by a volume differential meter and compared with those of the control mice to which an isotonic sodium chloride solution was administered.
The test results are shown in the graph of FIG. 1 of the accompanying drawing. In the graph, percent of growth of edema is given on the vertical Y-axis and time (hour) after carrageenin administration is given on the horizontal X-axis. The numerals for the respective curves represent the respective specimens used in the test, that is, 1 represents isotonic sodium chloride solution, 2 cholesterol, 3 7-ketocholesterol, and 4 7-hydroxycholesterol.

PHA reaction = PHA reaction 50% inhibition (PHA method by Cooperband et al.), immunoregulatory action in vitro; assay type: cell-based; details: read-out: PHA reaction 50% inhibition concentration
From the text: The PHA reaction 50% inhibition concentration of the compounds of the general formula (I) were examined by using the PHA method by Cooperband, S. R., et al., (The Journal of Immunology, 109, (1), 154, (1972)). For sake of comparison, the effect of IRA obtained according to the Occhino et al., method (The Journal of Immunology, 110, (3), 685, (1973)) was also shown.

Compound	death in acute toxicity test (rats)	growth of edema ([1]; 200 mg/kg intra-abdominally, time not separately stated, control 82% in four hours)	IC50 (PHA reaction)	growth of edema ([1]; 200 mg/kg intra-abdominally, five hours after carrageenin, control 82% in four hours)	growth of edema ([1]; four hours after carrageenin, cholesterol group (reference data), control 82%)
CC(C)CCC[C@@H](C)[C@H]1CC[C@H]2[C@@H]3C(=O)C=C4C[C@@H](O)CC[C@]4(C)[C@H]3CC[C@]12C [7-ketocholesterol]	No death	about 50%	8 µg/mL (≈ 20 µM)		
CC(C)CCC[C@@H](C)[C@H]1CC[C@H]2[C@@H]3C(O)C=C4C[C@@H](O)CC[C@]4(C)[C@H]3CC[C@]12C (stereo partly shown) [7-hydroxycholesterol]	No death		5 µg/mL (≈ 12.4 µM)	about 40%	
CC(C)CCC[C@@H](C)[C@H]1CC[C@H]2[C@@H]3CC=C4C[C@@H](O)CC[C@]4(C)[C@H]3CC[C@]12C [cholesterol]					70%
